Counter-ions that a name gives are not always drawn.

Data set [1] deals with human A549 lung cancer cell line. Briefly: Cell growth inhibition assay (SRB), Example 2, A549. The class given is cell-based. The text has this:
Cell Growth Inhibition Assay. The sulforhodamine B assay was used according to the procedures developed and validated at NCI. […] The values were interpolated from dose-response data.

For a further data set, the system named is KB (nasopharyngeal). Briefly: Cell growth inhibition assay (SRB), Example 2, KB. The settings on record: Table 6, 72-h continuous treatment. The class given is cell-based, human. The text has this:
(§1) Drug-Resistance Study. Twelve active compounds [including four hydrochloride salts (18b, 22b, 24b, 32b) of corresponding active free bases (18a, 22a, 24a, 32a)] were further screened against an extended panel of human tumor cell lines including DU-145 (prostate), ZR-751 (breast), KB (nasopharyngeal), and KB-VIN (multidug-resistant KB subline) in order to explore their antitumor spectra and drug-resistance profiles. Four compounds were used as reference compounds. Antofine is a positional isomer of tylophorine isolated from Asclepiadaceae by Dr. T. S. Wu in Taiwan (Wu, P. L. et al., Heterocycles 2002; 57:2401). […] Doxorubicin (Adriamycin), vincristine, and etoposide (VP-16, Vepesid®) are widely used anticancer agents for treating a range of solid tumors.
(§2) Cell Growth Inhibition Assay. The sulforhodamine B assay was used according to the procedures developed and validated at NCI. The in vitro anticancer activities are expressed as ED50 values, which is the test compound concentration (μM) that reduced the cell number by 50% after 72-h of continuous treatment. The values were interpolated from dose-response data. Each test was performed in triplicate with variation less than 5%. The ED50 values determined in each of independent tests varied less than 10%. Compound stock solutions were prepared in DMSO with the final solvent concentration ≦1% DMSO (v/v), a concentration without effect on cell replication. The cells were cultured at 37° C. in RPMI-1640 supplemented with 25 mM N-2-hydroxyethylpiperazine-N′-2-ethanesulfonic acid (HEPES), […], 10% (v/v) fetal bovine serum, and 100 μg/mL kanamycin in a humidified atmosphere containing 5% CO2.

The next data set concerns DU-145 (prostate). Briefly: Cell growth inhibition assay (SRB), Example 2, DU-145. The class given is cell-based, human. The settings on record: Table 6, 72-h continuous treatment.
Text: as §1, §2

A further data set deals with ZR-751 (breast). Kind of data set: Cell growth inhibition assay (SRB), Example 2, ZR-751. The class given is cell-based, human. The settings on record: Table 6, 72-h continuous treatment.
Text: as §1, §2

Data set [2] concerns KB-VIN (multidug-resistant KB subline). Briefly: Cell growth inhibition assay (SRB), Example 2, KB-VIN. Type of data set: cell-based, human. The settings on record: Table 6, 72-h continuous treatment.
Text: as §1, §2

The subject of data set [3] is human A549 lung cancer cell line. Kind of data set: Cell growth inhibition assay (SRB), Example 1. The class given is cell-based. The settings on record: Homo sapiens; table footnotes of Example 1; A549. The text has this:
Results and discussion. […] Etoposide (VP-16) was used as the reference compound.
Cell Growth Inhibition Assay. The human A549 lung cancer cell line was used for the cytotoxicity screening of PBT derivatives using the cell-based sulforhodamine B (SRB) microtitre plate assay. […] Duration of compound exposure was 3 days.

Data set [4] has as its system tumor cell line panel (A549, KB, DU-145, ZR-751, KB-VIN). Briefly: Cytotoxic activity against the whole tumor cell line panel. The class given is cell-based, human. The settings on record: all cell lines of the panel; read-out: ED50 values against the tumor cell line panel.
Text: as §1
Cell Growth Inhibition Assay. The sulforhodamine B assay was used according to the procedures developed and validated at NCI. The in vitro anticancer activities are expressed as ED50 values, which is the test compound concentration (μM) that reduced the cell number by 50% after 72-h of continuous treatment. The values were interpolated from dose-response data. Each test was performed in triplicate with variation less than 5%. The ED50 values determined in each of independent tests varied less than 10%. […]

The mark [5] stands for this setting: Table 6, 72-h continuous treatment, hydrochloride, read-out: EC50 (μM) A549.
The mark [6] stands for this setting: Homo sapiens, A549, 72 h, Table 4, ED50, 72-h continuous treatment, NA = not active, read-out: A549 (μM), in vitro anticancer activity against A549 lung cancer cells.
The mark [7] stands for this setting: Homo sapiens, A549, 72 h, Table 6, 72-h continuous treatment, read-out: EC50 (μM) A549.

`COc1ccc2c(CNCCCCCCO)cc3cc4c(cc3c2c1)OCO4.Cl` [Compound 22b, N-(2,3-Methylenedioxy-6-methoxy-phenanthr-9-ylmethyl)-6-aminohexanol hydrochloride] came in with a melting point of 187 to 188 °C. In addition, in data set [1] (setting [5]), the EC50 stood at 0.13 µM. Besides, the EC50 in the data set on KB (nasopharyngeal) (hydrochloride) turned out to be 0.23 µM. In the data set with DU-145 (prostate) (hydrochloride), this compound yielded an EC50 of 0.07 µM. For the same compound, the EC50 in the data set with ZR-751 (breast) (hydrochloride) worked out at 0.08 µM. For the same compound, the EC50 in data set [2] (hydrochloride) was found to be 0.16 µM.

Consider `COc1ccc2c(CN3CCC(CCO)CC3)cc3cc4c(cc3c2c1)OCO4.Cl` [Compound 32b, N-(2,3-Methylenedioxy-6-methoxy-phenanthr-9-ylmethyl)-4-piperidineethanol hydrochloride], for which the melting point is 153 to 155 °C. Also, the EC50 in data set [1] (setting [5]) is 0.09 µM. For the same compound, the EC50 in the data set on KB (nasopharyngeal) (hydrochloride) came out at 0.2 µM. The same compound returned an EC50 with DU-145 (prostate) (hydrochloride) of 0.1 µM. In addition, the EC50 in the data set with ZR-751 (breast) (hydrochloride) stood at 0.02 µM. The EC50 in data set [2] (hydrochloride) was found to be 0.2 µM.

As for `COc1ccc2c(CN3CCC(CCO)CC3)cc3cc4c(cc3c2c1)OCO4` [Compound 32a, N-(2,3-Methylenedioxy-6-methoxy-phenanthr-9-ylmethyl)-4-piperidineethanol], the melting point lay in the range of 148 to 149 °C. Moreover, in data set [1] (setting [6]), the EC50 worked out at 0.15 µM. Further, the EC50 in data set [1] (setting [7]) came to 0.15 µM. In the data set with KB (nasopharyngeal), this compound yielded an EC50 of 0.42 µM. The EC50 with DU-145 (prostate) (Homo sapiens, DU-145, 72 h) amounted to 0.15 µM. In addition, the EC50 in the data set with ZR-751 (breast) (Homo sapiens, ZR-75-1, 72 h) came to 0.03 µM. Also, the EC50 in data set [2] amounted to 0.5 µM.

In the case of `COc1cc([C@@H]2c3cc4c(cc3[C@@H](O[C@@H]3O[C@@H]5CO[C@@H](C)O[C@H]5[C@H](O)[C@H]3O)[C@H]3COC(=O)[C@H]23)OCO4)cc(OC)c1O` [Etoposide (VP-16), Etoposide, reference compound], the EC50 came out at 1400 nM in data set [3]; 1.4 µM in data set [1] (setting [6]); 1.4 µM in data set [1] (setting [7]); 4.8 µM in the data set with KB (nasopharyngeal) (Homo sapiens, 72 h); 2.4 µM in the data set on DU-145 (prostate) (Homo sapiens, DU-145, 72 h); 3.1 µM in the data set on ZR-751 (breast) (Homo sapiens, ZR-75-1, 72 h). Besides, in data set [2] (Homo sapiens, KBVIN, 72 h), the EC50 was greater than 10 µM.

Take `COc1ccc2c(CNCCCCCCO)cc3cc4c(cc3c2c1)OCO4` [Compound 22a, N-(2,3-Methylenedioxy-6-methoxy-phenanthr-9-ylmethyl)-6-aminohexanol]: the melting point was in the range of 145 to 147 °C. In addition, in data set [1] (setting [6]), the EC50 amounted to 0.2 µM. Further, the EC50 in data set [1] (setting [7]) was found to be 0.16 µM. The EC50 with KB (nasopharyngeal) (Homo sapiens, 72 h) was 0.25 µM. The compound also yielded an EC50 with DU-145 (prostate) (Homo sapiens, DU-145, 72 h) of 0.04 µM. Besides, the EC50 with ZR-751 (breast) (Homo sapiens, ZR-75-1, 72 h) came to 0.13 µM. In data set [2], this compound returned an EC50 of 0.35 µM.

As for `COc1ccc2c(CN3CCCC[C@H]3CO)cc3cc4c(cc3c2c1)OCO4` [Compound 18b, N-(2,3-Methylenedioxy-6-methoxy-phenanthr-9-ylmethyl)-L-2-piperidinemethanol hydrochloride], the EC50 is 0.16 µM in data set [1] (Table 6, 72-h continuous treatment, read-out: EC50 (μM) A549); 0.12 µM with KB (nasopharyngeal); 0.09 µM in the data set with DU-145 (prostate); 0.08 µM in the data set on ZR-751 (breast); 0.09 µM in data set [2].

Consider `COc1ccc2c(CN3CCC(CO)CC3)cc3cc4c(cc3c2c1)OCO4` [Compound 24b, N-(2,3-Methylenedioxy-6-methoxy-phenanthr-9-ylmethyl)-L-4-piperidinemethanol hydrochloride], for which the EC50 is 0.07 µM in data set [1] (setting [5]); 0.07 µM with KB (nasopharyngeal) (hydrochloride); 0.05 µM with DU-145 (prostate) (hydrochloride); 0.04 µM in the data set with ZR-751 (breast) (hydrochloride); 0.04 µM in data set [2] (hydrochloride); less than 100 nM in data set [4].

For the origin of these results see US8188089B2, “Tylophorine analogs as antitumor agents” (The University of North Carolina at Chapel Hill, priority 2006, dated 2012).
